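All cell lines were grown in 96-well plates and treated with compound for 48 hours. At the GI50, growth is halved. TGI denotes the concentration required for complete inhibition of growth.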

This is an account of results in PubChem BioAssay (NCI).

Test systems include COLO 205 colon; HT29 colon; IGROV1 ovarian; KM12 colon; LOX IMVI melanoma; MALME-3M melanoma; OVCAR-8 ovarian; SF-295 CNS; SK-OV-3 ovarian; U251 CNS.
Assay in all cases: inhibition of tumour cell growth, NCI panel, 48 h

Regarding `C=C(C)[C@@H]1CC[C@]2(C)[C@H](CC=C3[C@@H]4[C@@H](C)[C@H](C)CC[C@]4(C(N)=O)CC[C@]32C)[C@@]1(C)CCC#N`, the GI50 was 4.01 µM with COLO 205 colon; 3.34 µM with HT29 colon; 5.58 µM in the test on IGROV1 ovarian; 3.47 µM in the test on KM12 colon; 7.06 µM in the test on LOX IMVI melanoma; 5.69 µM in the test with MALME-3M melanoma. The GI50 is 5.38 µM in the test on OVCAR-8 ovarian, 4.44 µM with SF-295 CNS, 7.31 µM in the test with SK-OV-3 ovarian and 4.32 µM in the test with U251 CNS. For the same compound, the TGI in the test with COLO 205 colon was 15.6 µM; in the test with HT29 colon it was 21.1 µM; in the test on IGROV1 ovarian, more than 100 µM; in the test with KM12 colon, 23.2 µM; with LOX IMVI melanoma, 20.1 µM; in the test on MALME-3M melanoma, 27.9 µM. The TGI with OVCAR-8 ovarian was 27.5 µM; in the test on SF-295 CNS it was more than 100 µM; in the test on SK-OV-3 ovarian, more than 100 µM; with U251 CNS it was 18.3 µM.
As for `NCCN.NCCN.O=C([O-])CCl.O=C([O-])CCl.[Co+3].[O-][Cl+3]([O-])([O-])[O-]`, the GI50 with COLO 205 colon, in the test with HT29 colon, in the test on IGROV1 ovarian, in the test with KM12 colon, in the test on LOX IMVI melanoma and with MALME-3M melanoma was more than 100 µM in each case. Besides, the GI50 with OVCAR-8 ovarian, in the test on SF-295 CNS, with SK-OV-3 ovarian and in the test with U251 CNS was more than 100 µM throughout. For the same compound, the TGI in the test with COLO 205 colon, with HT29 colon, with IGROV1 ovarian, in the test on KM12 colon, with LOX IMVI melanoma and with MALME-3M melanoma was more than 100 µM in each case. Besides, the TGI in the test on OVCAR-8 ovarian, in the test with SF-295 CNS, with SK-OV-3 ovarian and with U251 CNS was more than 100 µM in each case.
As for `O=C(O)CCC(NC(=O)c1ccccc1)C(=O)O` (stereo not given), the TGI in the test with COLO 205 colon, in the test on HT29 colon, in the test with IGROV1 ovarian, in the test on KM12 colon, in the test on LOX IMVI melanoma and with MALME-3M melanoma was more than 100 µM each time. Further, the TGI in the test on OVCAR-8 ovarian, with SF-295 CNS, with SK-OV-3 ovarian and in the test with U251 CNS was more than 100 µM in each case.
Regarding `Cc1cc(NCc2cc(Nc3ccnc4cc(Cl)ccc34)ccc2F)nc(N2CCN(C)CC2)n1`, the GI50 in the test on COLO 205 colon is 1.72 µM; with HT29 colon it was 1.72 µM; in the test with IGROV1 ovarian, 2.08 µM; in the test with KM12 colon, 2.11 µM; in the test with LOX IMVI melanoma it was 1.26 µM; in the test on MALME-3M melanoma, 1.84 µM. Moreover, the GI50 in the test with OVCAR-8 ovarian is 3.14 µM; in the test on SF-295 CNS, 1.09 µM; in the test with SK-OV-3 ovarian, 3.31 µM; in the test with U251 CNS, 1.78 µM. For the same compound, the TGI in the test with COLO 205 colon was 3.66 µM; in the test on HT29 colon, 5.13 µM; in the test with IGROV1 ovarian it was 5.76 µM; in the test with KM12 colon, 6.5 µM; in the test on LOX IMVI melanoma, 2.65 µM; with MALME-3M melanoma, 3.66 µM. Moreover, the TGI was determined as 12.9 µM with OVCAR-8 ovarian, 2.55 µM in the test with SF-295 CNS, 9.88 µM with SK-OV-3 ovarian and 4.46 µM in the test with U251 CNS.
Consider `CC(C)COCC(CN(Cc1ccccc1)c1ccccc1)N1CCCC1` (stereo not given), for which the GI50 in the test with COLO 205 colon was 1.53 µM; with HT29 colon, 1.46 µM; in the test on IGROV1 ovarian it was 3.18 µM; in the test with KM12 colon, 3.54 µM; in the test on LOX IMVI melanoma it was 2.48 µM; in the test with MALME-3M melanoma, 1.89 µM. Moreover, the GI50 with OVCAR-8 ovarian is 3.75 µM; with SF-295 CNS, 2.02 µM; in the test with SK-OV-3 ovarian, 3.17 µM; in the test on U251 CNS, 3.24 µM. Moreover, the TGI in the test on COLO 205 colon stood at 3.52 µM; in the test with HT29 colon it was 4.17 µM; in the test with IGROV1 ovarian it was 15 µM; with KM12 colon it was 13.7 µM; in the test with LOX IMVI melanoma, 8.2 µM; with MALME-3M melanoma it was 4.74 µM. For the same compound, the TGI with OVCAR-8 ovarian came to 14.9 µM; in the test on SF-295 CNS, 6.5 µM; with SK-OV-3 ovarian it was 13.6 µM; in the test on U251 CNS, 13.3 µM.
In the case of `O=C1C2C(c3ccccc3)NC(c3ccccc3)C1C(c1ccccc1)NC2c1ccccc1` (stereo not given), the TGI in the test with COLO 205 colon, in the test with HT29 colon, in the test on IGROV1 ovarian, in the test on KM12 colon, in the test with LOX IMVI melanoma and in the test on MALME-3M melanoma was more than 100 µM each time. In addition, the TGI in the test with OVCAR-8 ovarian, in the test with SF-295 CNS, in the test on SK-OV-3 ovarian and in the test on U251 CNS was more than 100 µM throughout.
For the compound `Cc1ccc([N+](=O)[O-])cc1NC(=O)c1cccc([N+](=O)[O-])c1O`, the TGI in the test with COLO 205 colon was 32.2 µM; in the test on HT29 colon, more than 100 µM; in the test with IGROV1 ovarian, 98.6 µM; in the test with KM12 colon, 87.2 µM; in the test on LOX IMVI melanoma, more than 100 µM; in the test with MALME-3M melanoma, 62.7 µM. Also, the TGI with OVCAR-8 ovarian was more than 100 µM; with SF-295 CNS, 63.3 µM; in the test on SK-OV-3 ovarian it was 54.3 µM; in the test on U251 CNS it was more than 100 µM.
On to `O=P(CCCCP(=O)(c1ccccc1)c1ccccc1)(c1ccccc1)c1ccccc1.[Cl][Sn]([Cl])([c]1ccccc1)[c]1ccccc1`, for which the GI50 in the test on COLO 205 colon is 1.78 µM; in the test with HT29 colon, 1.89 µM; in the test on IGROV1 ovarian, 3.9 µM; in the test with KM12 colon it was 3.05 µM; in the test on LOX IMVI melanoma it was 1.29 µM; with MALME-3M melanoma, 1.41 µM. The GI50 was 2.3 µM in the test on OVCAR-8 ovarian, 6.36 µM in the test with SF-295 CNS, 6.25 µM in the test with SK-OV-3 ovarian and 2 µM in the test on U251 CNS. In addition, the TGI in the test on COLO 205 colon is 3.98 µM; in the test on HT29 colon, 4.01 µM; in the test on IGROV1 ovarian it was 8.39 µM; in the test on KM12 colon, 10.5 µM; in the test with LOX IMVI melanoma it was 5.45 µM; in the test with MALME-3M melanoma, 3.1 µM. Moreover, the TGI with OVCAR-8 ovarian amounted to 6.28 µM; with SF-295 CNS it was 18.3 µM; with SK-OV-3 ovarian, 19 µM; in the test on U251 CNS it was 4.77 µM.
